Source: PMC7181660, “A novel specific PERK activator reduces toxicity and extends survival in Huntington's disease models” (Scientific Reports, 2020)

Experiments:
HMOX1 mRNA = HMOX1 mRNA (downstream target of NRF2-P) by qPCR; format: cell-based, murine; conditions: STHdh^Q7/7 and STHdh^Q111/111 cells
Description: Total cell RNA was extracted with TRIzol reagent (Invitrogen) according to the manufacturer's instructions. Reverse transcription (RT) was performed with QuantaBio qScript cDNA synthesis kit. Real-time qPCR was carried out using a CFX Connect Real-Time PCR Detection System (BioRad) and the amplifications were done using the SYBR Green PCR Master Mix (pcrbio). Reactions were run in triplicates in three independent experiments. Housekeeping gene GAPDH was used as an internal control to normalize the variability of expression levels.
Suppl. Fig. S5. NRF2 activation but not involvement in cell protection by MK-28. A)
Scheme of NRF2 activation by PERK. B) qPCR of HMOX1, a downstream target of NR F2.
Medians +- interquartile range of 3 independent experiments . P values of STHdhQ7/7 MK 5µM […]
presence of Tun and the indicated concentrations of MK-28, plus increasing concentrations of the NRF2 inhibitor ML385. Average of 3 independent experiments +-SD. D) Apoptosis of STHdhQ111/111 cells treated only with increasing concentrations of ML385. Average of 3 independent experiments +-SD.
(1 picture or pasted object on this page, not shown here)

WT MEF cells = experiment: Rescue from tunicamycin-induced apoptosis in WT MEFs; format: cell-based; conditions: Mus musculus, MEF; WT MEFs treated with Tun; read-out: IC50 for inhibition of apoptosis
Description: STHdh^Q111/111 cells (used before[13]) or PERK+/+ or PERK−/− MEFs (kindly provided by David Ron, Univ. Cambridge) were incubated with Tun (10 μg/ml) for 48 h, which results in ER stress-induced cell death. Cells under the same conditions were incubated for the same times, together with Tun, with increasing concentrations of the different PERK modulators (0–120 μM) and the percent of apoptotic cells was measured by FACS cell cycle progression using propidium iodide (PI), considering the fraction beneath G0/G1. The relative apoptosis rate was calculated to be able to compare between compounds and experiments, where for each concentration curve the percent of apoptotic cells was considered 100 at concentration 0 of the PERK modulator, with only Tun. The graphs show the average relative apoptosis rate of at least 3 independent experiments for each compound.
Cells were washed with PBS and fixed with cold methanol. Before FACS analysis cells were washed with PBS, followed by addition of propidium iodide (PI) solution (10 μg/ml) and analysis by flow cytometry. Cells in sub-G0/G1 were counted as apoptotic/ dead.

panel of 391 kinases [1] = molecular target: panel of 391 kinases (Homo sapiens, UniProt Q9H2K8); experiment: biochemical; format: biochemical; conditions: TAOK3/JIK, MK-28 1 µM, ATP 1 µM
panel of 391 kinases [2] = molecular target: panel of 391 kinases (Homo sapiens, UniProt Q15303); experiment: biochemical; format: biochemical; conditions: ERBB4/HER4, MK-28 1 µM, ATP 1 µM
panel of 391 kinases [3] = molecular target: panel of 391 kinases (Homo sapiens, UniProt P17948); experiment: biochemical; format: biochemical; conditions: FLT1/VEGFR1, MK-28 1 µM, ATP 1 µM
panel of 391 kinases [4] = molecular target: panel of 391 kinases (Homo sapiens, UniProt Q05513); experiment: biochemical; format: biochemical; conditions: PKCzeta, MK-28 1 µM, ATP 1 µM
panel of 391 kinases [5] = molecular target: panel of 391 kinases (Homo sapiens, UniProt O43781); experiment: biochemical; format: biochemical; conditions: DYRK3, MK-28 1 µM, ATP 1 µM
panel of 391 kinases [6] = molecular target: panel of 391 kinases (Homo sapiens, UniProt P57059); experiment: biochemical; format: biochemical; conditions: SIK1, MK-28 1 µM, ATP 1 µM
panel of 391 kinases [7] = molecular target: panel of 391 kinases (Homo sapiens, UniProt O75385); experiment: biochemical; format: biochemical; conditions: ULK1, MK-28 1 µM, ATP 1 µM
panel of 391 kinases [8] = molecular target: panel of 391 kinases (Homo sapiens, UniProt Q9Y243); experiment: biochemical; format: biochemical; conditions: AKT3, MK-28 1 µM, ATP 1 µM
panel of 391 kinases [9] = molecular target: panel of 391 kinases (Homo sapiens, UniProt Q8WXR4); experiment: biochemical; format: biochemical; conditions: MYO3b, MK-28 1 µM, ATP 1 µM
panel of 391 kinases [10] = molecular target: panel of 391 kinases (Homo sapiens, UniProt Q8N5S9); experiment: biochemical; format: biochemical; conditions: CAMKK1, MK-28 1 µM, ATP 1 µM
panel of 391 kinases [11] = molecular target: panel of 391 kinases (Homo sapiens, UniProt P42679); experiment: biochemical; format: biochemical; conditions: CTK/MATK, MK-28 1 µM, ATP 1 µM
panel of 391 kinases [12] = molecular target: panel of 391 kinases (Homo sapiens, UniProt O14965); experiment: biochemical; format: biochemical; conditions: Aurora A, MK-28 1 µM, ATP 1 µM
panel of 391 kinases [13] = molecular target: panel of 391 kinases (Homo sapiens, UniProt Q96NX5); experiment: biochemical; format: biochemical; conditions: CAMK1g, MK-28 1 µM, ATP 1 µM
panel of 391 kinases [14] = molecular target: panel of 391 kinases (Homo sapiens, UniProt O94921); experiment: biochemical; format: biochemical; conditions: CDK14/cyclin Y (PFTK1), MK-28 1 µM, ATP 1 µM
ATF4 = ATF4 protein levels by immunoblot in STHdh^Q7/7 cells; format: cell-based, murine; conditions: high MK-28 concentration
Description: STHdh^Q7/7 and STHdh^Q111/111 cells were treated with different concentrations of MK-28. The concentration range was chosen in accordance to previous studies with A4. Cells were lysed with PBS containing 1% Triton X-100, 0.5% Sodium deoxycholate with protease and phosphatase inhibitors cocktails. Cocktail 2 and 3 (Sigma) were added to the lysis buffer for detection of phosphorylated proteins and lysates were incubated on ice for 30 minutes, then centrifuged at 16,000xg for 30 minutes a 4 °C. […] Immunoblotting, detection by ECL and quantitation was done as described previously.

[15] = read-out: % Enzyme Activity (relative to DMSO controls)

SMILES: CN(/N=C\c1ccc(O)c(O)c1)c1nc(-c2ccccc2)cc(-c2ccccc2)n1 [MK-28]
- HMOX1 mRNA levels (HMOX1 mRNA): upregulation
- IC50 (WT MEF cells): 1700 nM
- % Enzyme Activity (relative to DMSO controls) (panel of 391 kinases [1]): 100.19%
- remaining activity at 1 µM (panel of 391 kinases [1]; [15]): 103%
- % Enzyme Activity (relative to DMSO controls) (panel of 391 kinases [2]): 97.84%
- remaining activity at 1 µM (panel of 391 kinases [2]; [15]): 99.3%
- % Enzyme Activity (relative to DMSO controls) (panel of 391 kinases [3]): 84.43%
- remaining activity at 1 µM (panel of 391 kinases [3]; [15]): 84.8%
- % Enzyme Activity (relative to DMSO controls) (panel of 391 kinases [4]): 100.19%
- remaining activity at 1 µM (panel of 391 kinases [4]; [15]): 100%
- % Enzyme Activity (relative to DMSO controls) (panel of 391 kinases [5]): 96.41%
- remaining activity at 1 µM (panel of 391 kinases [5]; [15]): 97.5%
- % Enzyme Activity (relative to DMSO controls) (panel of 391 kinases [6]): 83.98%
- remaining activity at 1 µM (panel of 391 kinases [6]; [15]): 85%
- % Enzyme Activity (relative to DMSO controls) (panel of 391 kinases [7]): 97.64%
- remaining activity at 1 µM (panel of 391 kinases [7]; [15]): 100%
- % Enzyme Activity (relative to DMSO controls) (panel of 391 kinases [8]): 81.92%
- remaining activity at 1 µM (panel of 391 kinases [8]; [15]): 82.2%
- % Enzyme Activity (relative to DMSO controls) (panel of 391 kinases [9]): 107.45%
- remaining activity at 1 µM (panel of 391 kinases [9]; [15]): 113%
- % Enzyme Activity (relative to DMSO controls) (panel of 391 kinases [10]): 101.88%
- remaining activity at 1 µM (panel of 391 kinases [10]; [15]): 102%
- % Enzyme Activity (relative to DMSO controls) (panel of 391 kinases [11]): 98.98%
- remaining activity at 1 µM (panel of 391 kinases [11]; [15]): 101%
- % Enzyme Activity (relative to DMSO controls) (panel of 391 kinases [12]): 71.13%
- remaining activity at 1 µM (panel of 391 kinases [12]; [15]): 73.2%
- % Enzyme Activity (relative to DMSO controls) (panel of 391 kinases [13]): 96.34%
- remaining activity at 1 µM (panel of 391 kinases [13]; [15]): 100%
- % Enzyme Activity (relative to DMSO controls) (panel of 391 kinases [14]): 103.85%
- remaining activity at 1 µM (panel of 391 kinases [14]; [15]): 105%
- increase of ATF4 protein levels (ATF4): up to 2.5 fold
